Test systems include A549; HCC 2998; HL-60; HOP-62; K562; LOX IMVI; MOLT-4; SF-539; SK-MEL-28; SK-MEL-2; SR; U-251; UACC-62; A498; UO-31.
Assay in all cases: growth of human tumour cells (NCI), 48 h

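Five concentrations, 48 hours, 96-well plates. At the GI50, growth is halved.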 Calls of active or inactive are those of the source. Rule as the data show it: active = GI50 up to about 1.1 µM and inactive = higher.

`COC(=O)CC(c1ccccc1)C1(c2ccccc2)SCCS1` (configuration not stated): the GI50 in the test with A549 was 272 µM (inactive); with HCC 2998, > 290 µM (inactive); with HL-60, 141 µM (inactive); in the test with HOP-62, 266 µM (inactive); with K562, 133 µM (inactive); with LOX IMVI, 130 µM (inactive). Also, the GI50 with MOLT-4 is 58.1 µM (inactive); with SF-539 it was > 290 µM (inactive); in the test with SK-MEL-28 it was > 290 µM (inactive); with SK-MEL-2 it was 261 µM (inactive); in the test on SR it was 54.8 µM (inactive); with U-251, > 290 µM (inactive). The GI50 in the test with UACC-62 was 142 µM (inactive).

On to `CCOC(=O)C(=CNC(Cc1c[nH]c2ccccc12)C(=O)OC)C(=O)OCC` (configuration not stated), for which the GI50 was > 100 µM (inactive) in the test on A498; > 100 µM (inactive) in the test with HL-60; < 0.01 µM (active) in the test on HOP-62; > 100 µM (inactive) with K562; > 100 µM (inactive) in the test on LOX IMVI; > 100 µM (inactive) in the test with MOLT-4. In addition, the GI50 in the test on SF-539 was > 100 µM (inactive); with SK-MEL-28, > 100 µM (inactive); with SK-MEL-2, 63.8 µM (inactive); with U-251, > 100 µM (inactive); in the test with UACC-62 it was 71.1 µM (inactive); in the test on UO-31, 74.6 µM (inactive).

Consider `c1cc2c(cc1C1OCC3C(c4ccc5c(c4)OCO5)OCC13)OCO2` (configuration not stated), for which the GI50 was 55.3 µM (inactive) with A498; 54 µM (inactive) in the test with A549; 71.1 µM (inactive) in the test on HCC 2998; > 100 µM (inactive) with HOP-62; 35.6 µM (inactive) in the test on K562; 73.1 µM (inactive) in the test with LOX IMVI. Also, the GI50 is 34.1 µM (inactive) in the test with MOLT-4; > 100 µM (inactive) in the test on SF-539; 64.7 µM (inactive) in the test on SK-MEL-28; 98.2 µM (inactive) with SK-MEL-2; 83 µM (inactive) with U-251; 50 µM (inactive) in the test on UACC-62. In addition, the GI50 with UO-31 was 57 µM (inactive).

`CC(C)(C)[Si](C)(C)O/N=C\c1cccc(O[Si](C)(C)C(C)(C)C)c1`: the GI50 in the test with A549 is 17.8 µM (inactive); with HCC 2998 it was 18.3 µM (inactive); in the test on HL-60, 18.3 µM (inactive); in the test on HOP-62 it was 22.8 µM (inactive); with K562, 18.1 µM (inactive); with LOX IMVI, 19.2 µM (inactive). In addition, the GI50 in the test with MOLT-4 was 18.1 µM (inactive); in the test on SF-539, 21.9 µM (inactive); in the test with SK-MEL-2, 17.9 µM (inactive); with U-251, 17.5 µM (inactive); in the test with UACC-62, 16.7 µM (inactive); in the test on UO-31, 15.6 µM (inactive).

For the molecule `O=C1CCCCCCCCCCC(=O)C2CCOCCOCCOCCC1Cc1cccc(n1)C2`, the GI50 in the test with A498 is 82.8 µM (inactive); in the test on A549, > 100 µM (inactive); in the test with HCC 2998, 46.1 µM (inactive); in the test with HOP-62, > 100 µM (inactive); in the test with K562, 50.1 µM (inactive); in the test on LOX IMVI it was > 100 µM (inactive). The GI50 with MOLT-4 was 31.6 µM (inactive); in the test on SF-539, > 100 µM (inactive); with SK-MEL-28 it was > 100 µM (inactive); with SK-MEL-2 it was > 100 µM (inactive); in the test on U-251 it was > 100 µM (inactive); with UACC-62, > 100 µM (inactive). Besides, the GI50 with UO-31 is 42.1 µM (inactive).

`CC(C)(C)C(=O)/C=C/c1cccc(Oc2ccccc2)c1`: the GI50 in the test with A498 was 20 µM (inactive); with A549, 21.1 µM (inactive); in the test on HCC 2998, 19 µM (inactive); with HOP-62 it was 45 µM (inactive); in the test on K562, 5.93 µM (inactive); in the test on MOLT-4, 14.6 µM (inactive). The GI50 is 20.1 µM (inactive) with SF-539; 16.4 µM (inactive) in the test with SK-MEL-28; 13.1 µM (inactive) in the test on SK-MEL-2; 4.2 µM (inactive) with SR; 11.3 µM (inactive) in the test on U-251; 14.4 µM (inactive) in the test with UO-31.

Turning to `CCCOc1nc(N)c2cnn(C3CCCCO3)c2n1` (configuration not stated), the GI50 with A549, in the test with HCC 2998, in the test with HL-60, with HOP-62, in the test on K562 and with MOLT-4 was > 100 µM (inactive) each time. The GI50 with SF-539, with SK-MEL-28, in the test on SK-MEL-2, in the test on SR, with U-251 and with UACC-62 was > 100 µM (inactive) throughout. Moreover, the GI50 in the test with UO-31 is > 100 µM (inactive).

For `O=C1C(=O)N(c2cc(Cl)ccc2Cl)C(=O)C(=O)C1c1nc2ccccc2s1`, the GI50 is > 100 µM (inactive) in the test on A498; > 100 µM (inactive) in the test with A549; > 100 µM (inactive) with HL-60; > 100 µM (inactive) in the test on HOP-62; 93.1 µM (inactive) with K562; > 100 µM (inactive) in the test with LOX IMVI. Moreover, the GI50 in the test on SF-539 is > 100 µM (inactive); with SK-MEL-28, > 100 µM (inactive); with SK-MEL-2, > 100 µM (inactive); with U-251 it was > 100 µM (inactive); in the test with UACC-62, > 100 µM (inactive); with UO-31, 16.2 µM (inactive).

For `COC(=O)C(CC(=O)c1c[nH]c2ccccc12)c1c[nH]c2ccccc12` (configuration not stated), the GI50 is 20.3 µM (inactive) in the test on A498; 21.2 µM (inactive) in the test with A549; 23 µM (inactive) in the test with HCC 2998; 20.1 µM (inactive) in the test on HL-60; 21.5 µM (inactive) in the test on HOP-62; 18.1 µM (inactive) with K562. For the same molecule, the GI50 is 16.2 µM (inactive) in the test on MOLT-4; 19.3 µM (inactive) in the test on SF-539; 19.5 µM (inactive) in the test with SK-MEL-28; 20.1 µM (inactive) with SK-MEL-2; 20.8 µM (inactive) with U-251; > 10 µM (inactive) in the test on UACC-62. Further, the GI50 with UO-31 was 18.2 µM (inactive).

On to `CC1(C)OC(=O)C(c2cccs2)C(=O)O1`, for which the GI50 in the test with A549, in the test with HCC 2998, in the test on HOP-62, in the test with K562, with LOX IMVI and with MOLT-4 was > 100 µM (inactive) in each case. Besides, the GI50 in the test on SF-539, with SK-MEL-28, in the test on SK-MEL-2, with SR, with U-251 and in the test with UACC-62 was > 100 µM (inactive) throughout. For the same molecule, in the test with UO-31, the GI50 is > 100 µM (inactive).

With `CCCCN(CCCC)C(=O)/C(CC(=O)c1cccc2ccccc12)=N\NC(=O)c1cc2ccccc2cc1O`, the GI50 in the test on A549 was 21.1 µM (inactive); with HCC 2998 it was 16.3 µM (inactive); in the test with HL-60, 3.2 µM (inactive); in the test with HOP-62, 20 µM (inactive); in the test on LOX IMVI, 13 µM (inactive); in the test with MOLT-4, 7.83 µM (inactive). Besides, the GI50 was 26 µM (inactive) in the test on SK-MEL-28; 14.1 µM (inactive) in the test on SK-MEL-2; 19.3 µM (inactive) with U-251; 6.85 µM (inactive) in the test on UACC-62; 10.1 µM (inactive) in the test on UO-31.

For `CN(C)CCCOc1ccc(/C=C2/CCC/C(=C/c3ccc(OCCCN(C)C)cc3)C2=O)cc1`, the GI50 is 1.85 µM (inactive) with A498; 3.3 µM (inactive) in the test on A549; 1.7 µM (inactive) in the test with HCC 2998; 1.97 µM (inactive) in the test with HL-60; 1.82 µM (inactive) in the test on HOP-62; 0.299 µM (active) in the test on K562. Further, the GI50 is 1.51 µM (inactive) in the test on LOX IMVI; 0.877 µM (active) with MOLT-4; 1.6 µM (inactive) with SF-539; 1.79 µM (inactive) in the test with SK-MEL-28; 2.03 µM (inactive) in the test with SK-MEL-2; 0.918 µM (active) in the test with U-251. Besides, the values for the GI50 with UACC-62 and in the test with UO-31 were 1.91 µM (inactive) and 1.79 µM (inactive), respectively.

As for `Brc1c2nc3ccccc3nc2n2ccc3ccccc3c12`, the GI50 in the test on A549, in the test on HCC 2998, in the test with HL-60, with HOP-62, in the test with K562 and in the test with LOX IMVI was > 100 µM (inactive) throughout. Besides, the GI50 in the test with MOLT-4, in the test with SF-539, with SK-MEL-28, in the test with SK-MEL-2, with SR and in the test on U-251 was > 100 µM (inactive) each time. Moreover, the GI50 in the test on UACC-62 and in the test with UO-31 was > 100 µM (inactive) each time.

As for `CCCCN/C(=N\C#N)N(Cc1ccccc1)Cc1ccccc1`, the GI50 in the test on A498 was 17.3 µM (inactive); with A549, 37.2 µM (inactive); with HCC 2998, 11.9 µM (inactive); in the test on HL-60, 18.9 µM (inactive); with HOP-62 it was 26.6 µM (inactive); in the test on K562, 16.6 µM (inactive). Also, the GI50 with LOX IMVI is 15.5 µM (inactive); in the test with MOLT-4 it was 17.5 µM (inactive); with SF-539, 22.2 µM (inactive); in the test with SK-MEL-28 it was 34.2 µM (inactive); in the test with SK-MEL-2 it was 15.2 µM (inactive); with U-251, 28.5 µM (inactive). In addition, the values for the GI50 with UACC-62 and with UO-31 were 15.4 µM (inactive) and 20.7 µM (inactive), respectively.

`Cn1nc(N)nc1N=S(C)(C)=N`: the GI50 in the test with A498, in the test with A549, in the test on HCC 2998, with HL-60, in the test on HOP-62 and with K562 was > 100 µM (inactive) throughout. In addition, the GI50 in the test on MOLT-4, in the test on SF-539, in the test with SK-MEL-28, in the test on SK-MEL-2, with U-251 and in the test on UACC-62 was > 100 µM (inactive) each time. The GI50 in the test on UO-31 was 88.9 µM (inactive).

Values taken from ChEMBL document CHEMBL1201862, “PubChem BioAssay data set” (2004).
